This test has as its system protéine tyrosine hydroxylase (TH). The experiment in a line: Induction of tyrosine hydroxylase in the locus coeruleus of mice (immunodetection and image analysis of brain sections). In kind it is in vivo, souris Balb/C. The settings on record: i.p. 20 mg/kg, single injection, 3 days after, % par rapport à la valeur moyenne du groupe témoin; for quantité de TH au niveau du LC, coupe 1: coupe 1 du LC (sens antérieur vers postérieur); for quantité de TH au niveau du LC, coupe 2: coupe 2 du LC (sens antérieur vers postérieur); for quantité de TH au niveau du LC, coupe 3: coupe 3 du LC (sens antérieur vers postérieur); for quantité de TH au niveau du LC, coupe 4: coupe 4 du LC (sens antérieur vers postérieur); for quantité de TH au niveau du LC, coupe 5: coupe 5 du LC (sens antérieur vers postérieur); for quantité de TH au niveau du LC, coupe 6: coupe 6 du LC (sens antérieur vers postérieur); for quantité de TH au niveau du LC, coupe 7: coupe 7 du LC (sens antérieur vers postérieur); for quantité de TH au niveau du LC, coupe 8: coupe 8 du LC (sens antérieur vers postérieur). The text has this:
Il est recherché, parmi les dérivés, ceux qui sont capables d'induire une augmentation de la protéine tyrosine hydroxylase (TH) dans le cerveau de la souris Balb/C, au niveau du locus coeruleus (LC).
Les animaux utilisés sont des souris mâles de la lignée pure Balb/C (Charles River Laboratories), âgées de 7 à 8 semaines au moment du traitement.
Les souris reçoivent une injection unique par voie intrapéritonéale du composé à tester, dissous dans une solution d'HCl 0,04 M (contrôle correspondant : HCl […]) si le composé est suffisamment soluble, ou dans l'huile d'olive 90 % / DMSO 10 % (contrôle correspondant : huile d'olive 90 % / DMSO 10 %) pour les composés insolubles en milieu aqueux.
Trois jours après l'injection de chaque molécule, tous les animaux sont sacrifiés par décapitation. Les cerveaux extraits sont ensuite congelés dans de l'azote liquide et conservés à -80° C.
Des coupes coronales de 8 microns d'épaisseur sont pratiquées le long de l'axe postéro-antérieur du LC et fixées. Les coupes sont transférées sur membranes Immobilon-P. La TH est mesurée par immunodétection et analyse d'image.

Each structure is given as a SMILES string.

Regarding `CN1CCC[C@@H]2C(=O)N3c4ccccc4C[C@H]3[C@@H]21` (racemic) [Exemple 7, (4aSR,11aSR,11bRS)-1-Méthyl-1,2,3,4,4a,11,11a,11b-octahydropyrido[2',3':3,4]pyrrolo[1,2-a]indol-5-one], under “listed as Ex.7, 20 mg/kg”, the “quantité de TH au niveau du LC, coupe 1” value is 59%; the “quantité de TH au niveau du LC, coupe 2” value is 57%; the “quantité de TH au niveau du LC, coupe 3” value amounted to 57%; the “quantité de TH au niveau du LC, coupe 4” value was found to be 51%. Also, where the note is “listed as Ex.7, 20 mg/kg”, the “quantité de TH au niveau du LC, coupe 5” value is on record as 28%; the “quantité de TH au niveau du LC, coupe 6” value was determined as 23%; the “quantité de TH au niveau du LC, coupe 7” value was 13%; the “quantité de TH au niveau du LC, coupe 8” value stood at 4%.
For `N#CCN1CCC[C@@H]2C(=O)N3c4ccccc4C[C@H]3[C@@H]21` (racemic) [Exemple 10, [(4aSR,11aSR,11bRS)-5-Oxo-3,4,4a,11,11a,11b-hexahydro-2H,5H-pyrido[2',3':3,4]pyrrolo[1,2-a]indol-1-yl]acétonitrile], the “quantité de TH au niveau du LC, coupe 1” value is 58%; the “quantité de TH au niveau du LC, coupe 2” value came out at 50%; the “quantité de TH au niveau du LC, coupe 3” value came out at 49%; the “quantité de TH au niveau du LC, coupe 4” value was 47%. The “quantité de TH au niveau du LC, coupe 5” value is on record as 34%; the “quantité de TH au niveau du LC, coupe 6” value is recorded as 26%; the “quantité de TH au niveau du LC, coupe 7” value is reported as 18%; the “quantité de TH au niveau du LC, coupe 8” value was determined as 1%.
Take `O=C1[C@H]2CCCN[C@H]2[C@@H]2Cc3cc(F)ccc3N12` (racemic) [Exemple 24, (4aSR,11aSR,11bRS)-9-Fluoro-1,2,3,4,4a,11,11a,11b-octahydropyrido[2',3':3,4]pyrrolo[1,2-a]indol-5-one]: the “quantité de TH au niveau du LC, coupe 1” value amounted to 51%; the “quantité de TH au niveau du LC, coupe 2” value is on record as 71%; the “quantité de TH au niveau du LC, coupe 3” value is 63%; the “quantité de TH au niveau du LC, coupe 4” value is given as 55%. The “quantité de TH au niveau du LC, coupe 5” value is listed as 44%; the “quantité de TH au niveau du LC, coupe 6” value stood at 33%; the “quantité de TH au niveau du LC, coupe 7” value turned out to be 6%; the “quantité de TH au niveau du LC, coupe 8” value was determined as 3%.
On to `Cc1ccc2c(c1)CC1C3=C(CCCN3C)C(=O)N21` (racemic) [Exemple 40, (11aRS)-1,9-Diméthyl-1,2,3,4,11,11a-hexahydropyrido [2',3':3,4] pyrrolo[1,2-a]indol-5-one], for which the “quantité de TH au niveau du LC, coupe 1” value came to 72%; the “quantité de TH au niveau du LC, coupe 2” value is 96%; the “quantité de TH au niveau du LC, coupe 3” value amounted to 66%; the “quantité de TH au niveau du LC, coupe 4” value is listed as 66%. Also, the “quantité de TH au niveau du LC, coupe 5” value was 58%; the “quantité de TH au niveau du LC, coupe 6” value was determined as 34%; the “quantité de TH au niveau du LC, coupe 7” value was determined as 39%; the “quantité de TH au niveau du LC, coupe 8” value is recorded as 4%.
With `O=C1C[C@@H]2[C@H]3[C@@H](CCN2Cc2ccccc2)c2ccccc2N13` (racemic) [Exemple 53, (3aRS,10bSR,10cRS)-3-Benzyl-2,3,3a,4,10b,10c-hexahydrobenzo [b]pyrido [2,3,4-gh]pyrrolizin-5(1H)-one], the “quantité de TH au niveau du LC, coupe 1” value worked out at 82%; the “quantité de TH au niveau du LC, coupe 2” value came out at 68%; the “quantité de TH au niveau du LC, coupe 3” value amounted to 64%; the “quantité de TH au niveau du LC, coupe 4” value was 71%. Besides, the “quantité de TH au niveau du LC, coupe 5” value is recorded as 53%; the “quantité de TH au niveau du LC, coupe 6” value is reported as 52%; the “quantité de TH au niveau du LC, coupe 7” value turned out to be 32%; the “quantité de TH au niveau du LC, coupe 8” value was 18%.
On to `C=CCN1CCC[C@@H]2C(=O)N3c4ccccc4C[C@@H]3[C@H]21` [Exemple 6, (4aSR, 11aRS,11bSR)-1-Allyl-1,2,3,4,4a,11,11a,11b-octahydropyrido[2 3'.3':3,4]pyrrolo[1,2-a]indol-5-one], for which, under “listed as Ex.6, 20 mg/kg”, the “quantité de TH au niveau du LC, coupe 1” value is on record as 65%; the “quantité de TH au niveau du LC, coupe 2” value is on record as 62%; the “quantité de TH au niveau du LC, coupe 3” value stood at 50%; the “quantité de TH au niveau du LC, coupe 4” value was determined as 53%. Under “listed as Ex.6, 20 mg/kg”, the “quantité de TH au niveau du LC, coupe 5” value is given as 41%; the “quantité de TH au niveau du LC, coupe 6” value is reported as 27%; the “quantité de TH au niveau du LC, coupe 8” value came to 6%.
On to `CCCN1CC[C@@H]2c3ccccc3N3NC(=O)C[C@H]1[C@@H]23` [Exemple 15, (3aSR,6aRS,10cRS)-4-Propyl-(3a,4,5,6,6a,10c-hexahydro)-3H-1,4,10b-triazafluoranthén-2-one], for which the “quantité de TH au niveau du LC, coupe 1” value is 79%; the “quantité de TH au niveau du LC, coupe 2” value was found to be 75%; the “quantité de TH au niveau du LC, coupe 3” value amounted to 72%; the “quantité de TH au niveau du LC, coupe 4” value worked out at 79%. Besides, the “quantité de TH au niveau du LC, coupe 5” value was determined as 33%; the “quantité de TH au niveau du LC, coupe 6” value was found to be 27%; the “quantité de TH au niveau du LC, coupe 7” value amounted to 7%; the “quantité de TH au niveau du LC, coupe 8” value is on record as 5%.
Turning to `Cc1ccc2c(c1)cc1n2C(=O)C2=C1N(C)CCC2` [Exemple 38, 1,9-Diméthyl-1,2,3,4-tétrahydropyrido[2',3':3,4]pyrrolo[1,2-a]indol-5-one], the “quantité de TH au niveau du LC, coupe 1” value is 64%; the “quantité de TH au niveau du LC, coupe 2” value came to 99%; the “quantité de TH au niveau du LC, coupe 3” value is recorded as 76%; the “quantité de TH au niveau du LC, coupe 4” value is recorded as 62%. Besides, the “quantité de TH au niveau du LC, coupe 5” value amounted to 27%; the “quantité de TH au niveau du LC, coupe 6” value is 14%; the “quantité de TH au niveau du LC, coupe 7” value is recorded as -3%; the “quantité de TH au niveau du LC, coupe 8” value is reported as 5%.

(Values after EP2102204B1, “NEW AMINOPYRROLO[1,2- A]INDOLE ET AMINOPYRIDAZINO[1,6-A]INDOLE DERIVATIVES, METHOD FOR PREPARING THE SAME AND PHARMACEUTICAL COMPOSITIONS CONTAINING THE SAME” (Les Laboratoires Servier, priority 2007, dated 2008).)
